Source: patent US20250129070A1, “BIFUNCTIONAL ANDROGEN RECEPTOR COMPOUNDS” (priority 2023, published 2025)

Columns and labels:
Format in all cases: cell-based
[1] = test system: AR / CBP ternary complex; assay: Ternary complex formation assay (sandwich ELISA, AR capture / CBP detection) in VCaP cell lysates; conditions: 1.5 hours treatment, sandwich ELISA (AR capture, CBP or p300 detection)
Method in brief: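 VCaP cells (50K/well, 5% charcoal-stripped FBS, ≥3 days) treated with bifunctional compound for 1.5 h, then lysed 30 min at 4 °C. AR captured on anti-AR (AR 441) plates; bound CBP or p300 detected by rabbit mAb plus HRP secondary. QuantaRed chemifluorescence read at ex 570/em 585, immediately and at 5 and 15 min.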

[2] = test system: VCaP cells; assay: VCaP growth inhibition assay; conditions: 30 pM R1881, 9 days, CTG
Method in brief: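 VCaP cells in phenol red-free DMEM/5% CSS, pre-incubated 72 h, then stimulated with R1881 (final 30 pM) and treated with 1:5 serial dilutions (final 100 nM to 10 fM) for 9 days at 37 °C. Viability by CellTiter-Glo luminescence; IC50 from 4-parameter logistic fit of RLU vs concentration.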

[3] = test system: HEK-293 cells; assay: HEK-293 growth inhibition assay; conditions: 3 days, CTG
Protocol: Cluster plates are returned to the incubator (37*C/5% CO2) for 24 hours prior to treatment. […] Cluster plates are returned to the incubator for 3 days.
After the 3-day treatment period, 100 uL media was removed from each well by aspiration and 100 uL room temperature CTG reagent (Promega Cat #G7573) is added back to each well. The cluster plates are placed on a shaker and incubated at room temperature for 20 minutes. Following this shaking/incubation, cluster plates are read on a luminometer (BMG ClarioStar). IC50 values are obtained by graphing the RLU data vs. compound concentration with nonlinear regression 4-parameter logistic curves (GraphPad Prism).

Structure (SMILES): CC(=O)N1CCc2c(c(-c3cccc4cc(-c5cnc(CCN(C)c6ncc(C(=O)NC7C(C)(C)C(Oc8ccc(C#N)c(Cl)c8)C7(C)C)cn6)nc5)ncc34)nn2C2CCOCC2)C1 (stereo not drawn) [Compound 74, 2-[2-[5-[8-(5-acetyl-1-tetrahydropyran-4-yl-6,7-dihydro-4H-pyrazolo[4,3-c]pyridin-3-yl)-3-isoquinolyl]pyrimidin-2-yl]ethyl-methyl-amino]-N-[3-(3-chloro-4-cyano-phenoxy)-2,2,4,4-tetramethyl-cyclobutyl]pyrimidine-5-carboxamide]
- EC50 [1]: < 1 nM
- IC50 [2]: 1 to 100 nM
- IC50 [3]: > 10000 nM

Structure (SMILES): CNC(=O)N1CCc2c(c(N3CCCc4cc(-c5cnn(C)c5)c(C(F)F)cc43)nn2C2CCN(C(=O)COCC3CCN(c4ncc(C(=O)NC5C(C)(C)C(Oc6ccc(C#N)c(Cl)c6)C5(C)C)cn4)CC3)CC2)C1 (stereo not drawn) [Compound 107, 1-[1-[2-[[1-[5-[[3-(3-chloro-4-cyano-phenoxy)-2,2,4,4-tetramethyl-cyclobutyl]carbamoyl]pyrimidin-2-yl]-4-piperidyl]methoxy]acetyl]-4-piperidyl]-3-[7-(difluoromethyl)-6-(1-methylpyrazol-4-yl)-3,4-dihydro-2H-quinolin-1-yl]-N-methyl-6,7-dihydro-4H-pyrazolo[4,3-c] pyridine-5-carboxamide]
- EC50 [1]: < 1 nM
- IC50 [2]: ≤ 0.1 nM
- IC50 [3]: > 10000 nM

Structure (SMILES): COc1cc(OC2C(C)(C)C(NC(=O)c3ccc(N4CCC(CN5CCC(n6nc(N7CCCc8cc(-c9cnn(C)c9)c(C(F)F)cc87)c7c6CCN(C(C)=O)C7)CC5)C(C)C4)cc3)C2(C)C)ccc1C#N (stereo not drawn) [Compound 263, 4-[4-[[4-[5-acetyl-3-[7-(difluoromethyl)-6-(1-methylpyrazol-4-yl)-3,4-dihydro-2H-quinolin-1-yl]-6,7-dihydro-4H-pyrazolo[4,3-c]pyridin-1-yl]-1-piperidyl]methyl]-3-methyl-1-piperidyl]-N-[3-(4-cyano-3-methoxy-phenoxy)-2,2,4,4-tetramethyl-cyclobutyl]benzamide]
- EC50 [1]: < 1 nM
- IC50 [2]: ≤ 0.1 nM
- IC50 [3]: > 1000 nM

Structure (SMILES): C[C@@H]1CC(=O)Nc2cccc(-c3ccc4c(c3)c(C3CC3)nn4CCCN3CCN(c4ncc(C(=O)NC5C(C)(C)C(Oc6ccc(C#N)c(Cl)c6)C5(C)C)cn4)CC3)c2N1 (stereo partly drawn) [Compound 59, N-[3-(3-chloro-4-cyano-phenoxy)-2,2,4,4-tetramethyl-cyclobutyl]-2-[4-[3-[3-cyclopropyl-5-[(4R)-4-methyl-2-oxo-1,3,4,5-tetrahydro-1,5-benzodiazepin-6-yl]indazol-1-yl]propyl]piperazin-1-yl]pyrimidine-5-carboxamide]
- EC50 [1]: > 100 nM
- IC50 [2]: > 100 nM
- IC50 [3]: > 10000 nM

Structure (SMILES): CNC(=O)N1CCc2c(c(N3CCCc4cc(-c5cnn(C)c5)c(C(F)F)cc43)nn2C2CCN(C(=O)CCN3CCN(c4ncc(C(=O)NC5C(C)(C)C(Oc6ccc(C#N)c(Cl)c6)C5(C)C)cn4)CC3)CC2)C1 (stereo not drawn) [Compound 108, 1-[1-[3-[4-[5-[[3-(3-chloro-4-cyano-phenoxy)-2,2,4,4-tetramethyl-cyclobutyl]carbamoyl]pyrimidin-2-yl]piperazin-1-yl]propanoyl]-4-piperidyl]-3-[7-(difluoromethyl)-6-(1-methylpyrazol-4-yl)-3,4-dihydro-2H-quinolin-1-yl]-N-methyl-6,7-dihydro-4H-pyrazolo[4,3-c]pyridine-5-carboxamide]
- EC50 [1]: < 1 nM
- IC50 [2]: ≤ 0.1 nM
- IC50 [3]: > 10000 nM

Structure (SMILES): COc1cc(OC2C(C)(C)C(NC(=O)c3cnc(N4CCC(CN5CCC(n6nc(N7CCCc8cc(-c9cnn(C)c9)c(C(F)F)cc87)c7c6CCN(C(C)=O)C7)CC5)C(C)(C)C4)nc3)C2(C)C)ccc1C#N (stereo not drawn) [Compound 360, 2-[4-[[4-[5-acetyl-3-[7-(difluoromethyl)-6-(1-methylpyrazol-4-yl)-3,4-dihydro-2H-quinolin-1-yl]-6,7-dihydro-4H-pyrazolo[4,3-c]pyridin-1-yl]-1-piperidyl]methyl]-3,3-dimethyl-1-piperidyl]-N-[3-(4-cyano-3-methoxy-phenoxy)-2,2,4,4-tetramethyl-cyclobutyl]pyrimidine-5-carboxamide]
- EC50 [1]: < 1 nM
- IC50 [2]: ≤ 0.1 nM
- IC50 [3]: > 1000 nM

Structure (SMILES): CC(=O)N1CCc2c(c(Nc3ccc(-c4cnn(C)c4)cc3F)nn2C2CCN(C(=O)CN3CCN(c4ncc(C(=O)NC5C(C)(C)C(Oc6ccc(C#N)c(Cl)c6)C5(C)C)cn4)CC3)CC2)C1 (stereo not drawn) [Compound 66, 2-[4-[2-[4-[5-acetyl-3-[2-fluoro-4-(1-methylpyrazol-4-yl)anilino]-6,7-dihydro-4H-pyrazolo[4,3-c]pyridin-1-yl]-1-piperidyl]-2-oxo-ethyl]piperazin-1-yl]-N-[3-(3-chloro-4-cyano-phenoxy)-2,2,4,4-tetramethyl-cyclobutyl]pyrimidine-5-carboxamide]
- EC50 [1]: < 1 nM
- IC50 [2]: 0.1 to 1 nM
- IC50 [3]: > 10000 nM

Structure (SMILES): CNC(=O)N1CCc2c(c(N3CCCc4cc(-c5cnn(C)c5)c(C(F)F)cc43)nn2C2CCN(C(=O)COCCCN3CCN(c4ncc(C(=O)NC5C(C)(C)C(Oc6ccc(C#N)c(Cl)c6)C5(C)C)cn4)CC3)CC2)C1 (stereo not drawn) [Compound 105, 1-[1-[2-[3-[4-[5-[[3-(3-chloro-4-cyano-phenoxy)-2,2,4,4-tetramethyl-cyclobutyl]carbamoyl]pyrimidin-2-yl]piperazin-1-yl]propoxy]acetyl]-4-piperidyl]-3-[7-(difluoromethyl)-6-(1-methylpyrazol-4-yl)-3,4-dihydro-2H-quinolin-1-yl]-N-methyl-6,7-dihydro-4H-pyrazolo[4,3-c]pyridine-5-carboxamide]
- EC50 [1]: < 1 nM
- IC50 [2]: 0.1 to 1 nM
- IC50 [3]: > 10000 nM

Structure (SMILES): CC(=O)N1CCc2c(c(-c3cccc4cc(-c5ccc(C(=O)NCC6CCN(c7ncc(C(=O)NC8C(C)(C)C(Oc9ccc(C#N)c(Cl)c9)C8(C)C)cn7)CC6)nc5)ncc34)nn2C2CCOCC2)C1 (stereo not drawn) [Compound 110, 2-[4-[[[5-[8-(5-acetyl-1-tetrahydropyran-4-yl-6,7-dihydro-4H-pyrazolo[4,3-c]pyridin-3-yl)-3-isoquinolyl]pyridine-2-carbonyl]amino]methyl]-1-piperidyl]-N-[3-(3-chloro-4-cyano-phenoxy)-2,2,4,4-tetramethyl-cyclobutyl]pyrimidine-5-carboxamide]
- IC50 [2]: ≤ 0.1 nM
- IC50 [3]: > 10000 nM

Structure (SMILES): Cn1cc(-c2cc3cccc(-c4cc(C5CCN(CC6CCN(c7ncc(C(=O)NC8C(C)(C)C(Oc9ccc(C#N)c(Cl)c9)C8(C)C)cn7)CC6)CC5)c5c(c4)n(C)c(=O)n5C)c3cn2)cn1 (stereo not drawn) [Compound 213, N-[3-(3-chloro-4-cyano-phenoxy)-2,2,4,4-tetramethyl-cyclobutyl]-2-[4-[[4-[1,3-dimethyl-6-[3-(1-methylpyrazol-4-yl)-8-isoquinolyl]-2-oxo-benzimidazol-4-yl]-1-piperidyl]methyl]-1-piperidyl]pyrimidine-5-carboxamide]
- EC50 [1]: > 100 nM
- IC50 [2]: 0.1 to 1 nM

Structure (SMILES): CC(=O)N1CCc2c(c(N3CCCc4cc(-c5cnn(C)c5)c(C(F)F)cc43)nn2C2CCC3(CC2)CCN(CC2CN(c4ccc(C(=O)NC5C(C)(C)C(Oc6ccc(C#N)c(Cl)c6)C5(C)C)nn4)C2)CC3)C1 (stereo not drawn) [Compound 209, 6-[3-[[9-[5-acetyl-3-[7-(difluoromethyl)-6-(1-methylpyrazol-4-yl)-3,4-dihydro-2H-quinolin-1-yl]-6,7-dihydro-4H-pyrazolo[4,3-c]pyridin-1-yl]-3-azaspiro[5.5]undecan-3-yl]methyl]azetidin-1-yl]-N-[3-(3-chloro-4-cyano-phenoxy)-2,2,4,4-tetramethyl-cyclobutyl]pyridazine-3-carboxamide]
- EC50 [1]: 10 to 100 nM
- IC50 [2]: ≤ 0.1 nM

Structure (SMILES): COC(=O)N1c2ccc3c(nc(Cc4ccccc4)n3[C@@H]3CCC[C@@H](C(=O)N4CCN(c5ncc(C(=O)NC6C(C)(C)C(Oc7ccc(C#N)c(Cl)c7)C6(C)C)cn5)CC4)C3)c2CC[C@@H]1C (stereo partly drawn) [Compound 127, methyl (7S)-2-benzyl-3-[(1R,3R)-3-[4-[5-[[3-(3-chloro-4-cyano-phenoxy)-2,2,4,4-tetramethyl-cyclobutyl]carbamoyl]pyrimidin-2-yl]piperazine-1-carbonyl]cyclohexyl]-7-methyl-8,9-dihydro-7H-imidazo[4,5-f]quinoline-6-carboxylate]
- EC50 [1]: < 1 nM
- IC50 [2]: ≤ 0.1 nM

Structure (SMILES): C[C@@H]1CC(=O)Nc2cccc(-c3ccc4c(c3)c(-c3cnn(C)c3)nn4CCCN(C)c3ncc(C(=O)NC4C(C)(C)C(Oc5ccc(C#N)c(Cl)c5)C4(C)C)cn3)c2N1 (stereo partly drawn) [Compound 50, N-[3-(3-chloro-4-cyano-phenoxy)-2,2,4,4-tetramethyl-cyclobutyl]-2-[methyl-[3-[5-[(4R)-4-methyl-2-oxo-1,3,4,5-tetrahydro-1,5-benzodiazepin-6-yl]-3-(1-methylpyrazol-4-yl)indazol-1-yl]propyl]amino]pyrimidine-5-carboxamide]
- EC50 [1]: < 1 nM
- IC50 [2]: 0.1 to 1 nM

Structure (SMILES): COc1cc(OC2C(C)(C)C(NC(=O)c3ccc(N4CCC(CCc5ccc(-c6cc7cccc(-c8nn(C9CCOCC9)c9c8CN(C(C)=O)CC9)c7cn6)cn5)CC4)cc3)C2(C)C)ccc1C#N (stereo not drawn) [Compound 245, 4-[4-[2-[5-[8-(5-acetyl-1-tetrahydropyran-4-yl-6,7-dihydro-4H-pyrazolo[4,3-c]pyridin-3-yl)-3-isoquinolyl]-2-pyridyl]ethyl]-1-piperidyl]-N-[3-(4-cyano-3-methoxy-phenoxy)-2,2,4,4-tetramethyl-cyclobutyl]benzamide]
- EC50 [1]: < 1 nM
- IC50 [2]: 0.1 to 1 nM
